# Where no end group is shown, it is not given here.
# Experiments:
# cerebellar microexplants = experiment: Cerebellar microexplant survival assay (3-NP/glutamate injury); type: cell-based, Wistar rat; conditions: 100 fM; administered simultaneously with toxins (0.5 mM 3-NP, 0.5 mM glutamate), severe injury
# Experimental: Laminated cerebellar cortices of the two hemispheres were explanted from a P3, P4, P7 or P8 Wistar rat, cut into small pieces in GBSS with 0.65% D(+)glucose solution, and triturated by a 0.4 mm gauge needle and subsequently pressed through a 125 μm pore size sieve. The obtained microexplants were centrifuged (60×g) 2 times for a medium exchange into serum-free BSA-supplemented START V-medium (Biochrom). Finally, the microexplants were reconstituted in 500 μl STARTV-medium. For culturing, 38 μl of the cell suspension was incubated for 1 hour on a poly-D-lysine-coated cover slip in a 35 mm Petri dish under an atmosphere comprising 5% CO2 in air and 100% humidity at 34° C. Subsequently, the injuring toxins (as described below), NRPs and 1 ml of STARTV-medium were added, and the cultures were evaluated after 2-3 days of culture.
# Toxicological and drug administration experiments were designed such that 1/100 parts of toxin and neuroprotective drug were administered simultaneously to the freshly prepared cerebellar microexplants. […]
# For statistical analysis of survival, four fields (each field having an area of 0.65 mm^2) of each fixed cerebellar culture with the highest cell densities were chosen, and cells displaying neurite outgrowth were counted (survival assay).
# [1] = test system: human primary trophoblasts; experiment: Trophoblast haptotactic migration (Boyden chamber) assay; type: cell-based; conditions: 0.1 ng/ml coating, 100 fM in inserts; 22 hrs
# Experimental: Human trophoblast cells were isolated from term placentas with prior approval by the Ethics Committee of the University of Auckland and consent of the patients. The maternal decidua was removed, exposing the villous interior of the placenta. Pieces of villous tissue were cut out and washed thoroughly with PBS before digestion using 0.25% trypsin. The digest was then diluted in Locke Ringers Buffer and DNAase I. Digestion of connective tissue surrounding the placental cells was carried out while stirring the mixture with a magnetic stirrer at a temperature of 37° C. The process was repeated 8 times, with the last 6 supernatants being collected in a bottle containing fetal bovine serum (FBS). The digestion step produced a heterogeneous dispersed cell preparation. The pooled supernates was centrifuged for 7 minutes at 1200 rpm. The cell pellet was resuspended in PBS and centrifuged. […]
# Cells were then purified using a percoll gradient (5, 20, 30, 35, 40, 50 and 60%). […] This band was collected, the cells washed in M199 medium centrifuged and finally counted and plated according to the methods of Keelan et al, 1998. […]
# Under control conditions, the bottom of the chamber is not pre-coated with a putative chemoattractive agent. […] Thus, the number of migratory cells can be quantified. […]
substance,measurement,setting,value
"REGRRAAPGRAGG-NH2 (listed as Homo sapiens) [SEQ ID NO: 1, 13-mer NRP analogue]","survival rates, neuroprotection",cerebellar microexplants,39.1%
same,increase of migratory cells,[1],95%

# Reference: patent publication US8138304B2, “Neural regeneration peptides and formulations thereof” (Neuren Pharmaceuticals Limited, priority 2005, dated 2012)
